Assay results taken from PubChem BioAssay (NCI).
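Each compound was tested at five concentrations against cells in 96-well plates for 48 hours. At the TGI there is no net growth.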 Where a SMILES comes first, the peptide text is derived from it. The star is where a group is joined. Boc = CC(C)(C)OC(=O)*; Bn = c1ccc(C*)cc1

Columns and labels:
Experiment in all cases: inhibition of tumour cell growth, NCI panel, 48 h
MDA-MB-231 breast = test system: MDA-MB-231 breast
MOLT-4 leukemia = test system: MOLT-4 leukemia
OVCAR-8 ovarian = test system: OVCAR-8 ovarian
OVCAR-5 ovarian = test system: OVCAR-5 ovarian
SK-OV-3 ovarian = test system: SK-OV-3 ovarian
NCI-H522 lung = test system: NCI-H522 lung
SNB-19 CNS = test system: SNB-19 CNS
RXF 393 renal = test system: RXF 393 renal
HS 578T breast = test system: HS 578T breast
MALME-3M melanoma = test system: MALME-3M melanoma
MCF7 breast = test system: MCF7 breast
CAKI-1 renal = test system: CAKI-1 renal
UO-31 renal = test system: UO-31 renal

SMILES	TGI (MDA-MB-231 breast) [µM]	TGI (MOLT-4 leukemia) [µM]	TGI (OVCAR-8 ovarian) [µM]	TGI (OVCAR-5 ovarian) [µM]	TGI (SK-OV-3 ovarian) [µM]	TGI (NCI-H522 lung) [µM]	TGI (SNB-19 CNS) [µM]	TGI (RXF 393 renal) [µM]	TGI (HS 578T breast) [µM]	TGI (MALME-3M melanoma) [µM]	TGI (MCF7 breast) [µM]	TGI (CAKI-1 renal) [µM]	TGI (UO-31 renal) [µM]
CCC1(CC)C(=O)NN(C(=O)c2ccc(Cl)cc2)C1=O	> 100	> 100	> 100	> 100	> 100	> 100	> 100	> 100	> 100	18.1	> 100	> 100	> 100
O=c1[nH]c2cc3[nH]c(=O)c(=O)[nH]c3cc2[nH]c1=O	> 100	> 100	> 100	> 100	> 100	> 100	> 100	> 100	> 100	> 100	> 100	> 100	> 100
CC1=NN(C(=O)CC(=O)Nc2ccc(Cl)cc2)C(=O)C1N=Nc1ccc(S(=O)(=O)c2ccc(N=NC3C(=O)N(C(=O)CC(=O)Nc4ccc(Cl)cc4)N=C3C)cc2)cc1 (stereo unspecified)	> 100	> 100	> 100	> 100	> 100	> 100	> 100	> 100	> 100	> 100	> 100	> 100	> 100
COC(=O)/C=C/C(=O)Nc1cc(Cl)c(Cl)cc1CC(=O)N(C)[C@H]1CCCC[C@@H]1N1CCCC1	28.9	13.8	16.3	32	37.8	7.89	37.7	17.7	36	20.5	13.6	38.2	21.3
COC(=O)C(CC(C)C)NC(=O)CNC(=O)C(Cc1ccc(OCc2ccccc2)cc1)NC(=O)C(COCc1ccccc1)NC(=O)OC(C)(C)C (stereo unspecified) (Boc-S(Bn)Y(Bn)GL-OMe; configuration not given here)	> 100	> 100	> 100	> 100	> 100	> 100	> 100	> 100	> 100	> 100	> 100	> 100	> 100
Cn1c(-c2cccs2)cc(-c2ccsc2)c1-c1cccs1	> 100	> 100	> 100	> 100	> 100	> 100	> 100	> 100	> 100	> 100	> 100	> 100	> 100
O=S1(=O)c2ccccc2-c2nccc3ccnc1c23	95.7	6.87	> 100	> 100	> 100	29.9	91.3	> 100	> 100	> 100	> 100	85.9	59
